According to patent publication EP4389749A1, “SUBSTITUTED 3,7-DIHYDRO-1H-PURINE-2,6-DIONES AND USE THEREOF” (invIOs GmbH, priority 2022, dated 2024):

Columns and labels:
CD4+ T-cells = experiment: Immunostimulation assay with anti-CD3/28 stimulated T-cells, CD69 expression by flow cytometry; assay type: cell-based, human; conditions: T-cell; purified human CD4+ and CD8+ T-cells, 1 µg/ml anti-CD3, 1 µg/ml anti-CD28, 16 hours, surface FACS; read-out: EC50 CD4+
In short: (§1)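 Human CD4+/CD8+ T-cells purified from buffy-coat PBMCs were stimulated with 1 µg/ml anti-CD3 and 1 µg/ml anti-CD28 plus compound (0.001–30 µM) for 16 h at 37 °C. CD69 measured by flow cytometry; DMSO set minimal, CD3/28 Dynabeads maximal activation; EC50 by variable-slope fit.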

CD8+ T-cells = experiment: as above; assay type: cell-based, human; conditions: T-cell; purified human CD4+ and CD8+ T-cells, 1 µg/ml anti-CD3, 1 µg/ml anti-CD28, 16 hours, surface FACS; read-out: EC50 CD8+
In short: as §1

EC50 (CD4+ T-cells) | EC50 (CD8+ T-cells) | SMILES
< 100 nM | < 100 nM | COc1cc(-c2nc3c(c(=O)[nH]c(=O)n3CC(O)C(F)(F)F)n2C)ccc1OCc1ccc(C)cc1 (stereo not drawn) [Compound 121, 8-(3-methoxy-4-((4-methylbenzyl)oxy)phenyl)-7-methyl-3-(3,3,3-trifluoro-2-hydroxypropyl)-3,7-dihydro-1H-purine-2,6-dione]
100 to 500 nM | 100 to 500 nM | Cn1c(-c2ccc(Oc3ccc(OC(F)(F)F)cc3F)c(Cl)c2)nc2c1c(=O)[nH]c(=O)n2CC(O)C(F)(F)F (stereo not drawn) [Compound 163, 8-(3-chloro-4-(2-fluoro-4-(trifluoromethoxy)phenoxy)phenyl)-7-methyl-3-(3,3,3-trifluoro-2-hydroxypropyl)-3,7-dihydro-1H-purine-2,6-dione]
100 to 500 nM | 100 to 500 nM | COc1cc(-c2nc3c(c(=O)[nH]c(=O)n3CC(C)CO)n2C)ccc1OCc1ccc(C(F)F)cc1 (stereo not drawn) [Compound 74, 8-(4-((4-(difluoromethyl)benzyl)oxy)-3-methoxyphenyl)-3-(3-hydroxy-2-methylpropyl)-7-methyl-3,7-dihydro-1H-purine-2,6-dione]
100 to 500 nM | < 100 nM | COc1cc(-c2nc3c(c(=O)[nH]c(=O)n3CC(O)C(F)F)n2C)ccc1OCc1ccc(F)cc1 (stereo not drawn) [Compound 84, 3-(3,3-difluoro-2-hydroxypropyl)-8-(4-((4-fluorobenzyl)oxy)-3-methoxyphenyl)-7-methyl-3,7-dihydro-1H-purine-2,6-dione]
500 to 1000 nM | 100 to 500 nM | COc1cc(-c2nc3c(c(=O)[nH]c(=O)n3CC(C)O)n2C)ccc1OCc1ccc(C(F)(F)F)cc1 (stereo not drawn) [Compound 89, 3-(2-hydroxypropyl)-8-(3-methoxy-4-((4-(trifluoromethyl)benzyl)oxy)phenyl)-7-methyl-3,7-dihydro-1H-purine-2,6-dione]
100 to 500 nM | 100 to 500 nM | COc1cc(-c2nc3c(c(=O)[nH]c(=O)n3CC(C)O)n2C)ccc1OCc1ccc(OC(F)(F)F)cc1 (stereo not drawn) [Compound 82, 3-(2-hydroxypropyl)-8-(3-methoxy-4-((4-(trifluoromethoxy)benzyl)oxy)phenyl)-7-methyl-3,7-dihydro-1H-purine-2,6-dione]
100 to 500 nM | 100 to 500 nM | CC(O)Cn1c(=O)[nH]c(=O)c2c1nc(-c1ccc(OCc3ccccc3)c(C(F)(F)F)c1)n2C (stereo not drawn) [Compound 98, 8-(4-(benzyloxy)-3-(trifluoromethyl)phenyl)-3-(2-hydroxypropyl)-7-methyl-3,7-dihydro-1H-purine-2,6-dione]
> 5000 nM | 1000 to 5000 nM | Cn1c(-c2ccc(OCc3ccc(C(F)F)cc3)c(F)c2)nc2c1c(=O)[nH]c(=O)n2CC(O)C(F)(F)F (stereo not drawn) [Compound 64, 8-(4-((4-(difluoromethyl)benzyl)oxy)-3-fluorophenyl)-7-methyl-3-(3,3,3-trifluoro-2-hydroxypropyl)-3,7-dihydro-1H-purine-2,6-dione]
100 to 500 nM | 100 to 500 nM | COc1cc(-c2nc3c(c(=O)[nH]c(=O)n3CC(C)O)n2C)ccc1OCc1cccc2ccncc12 (stereo not drawn) [Compound 101, 3-(2-hydroxypropyl)-8-(4-(isoquinolin-8-ylmethoxy)-3-methoxyphenyl)-7-methyl-3,7-dihydro-1H-purine-2,6-dione]
1000 to 5000 nM | 500 to 1000 nM | CC(O)Cn1c(=O)[nH]c(=O)c2c1nc(-c1ccc(OCc3ccc(Cl)c(F)c3)c(F)c1)n2C (stereo not drawn) [Compound 93, 8-(4-((4-chloro-3-fluorobenzyl)oxy)-3-fluorophenyl)-3-(2-hydroxypropyl)-7-methyl-3,7-dihydro-1H-purine-2,6-dione]
< 100 nM | 100 to 500 nM | Cc1ccc(COc2ccc(-c3nc4c(c(=O)[nH]c(=O)n4CC(O)C(F)(F)F)n3C)cc2F)cc1 (stereo not drawn) [Compound 102, 8-(3-fluoro-4-((4-methylbenzyl)oxy)phenyl)-7-methyl-3-(3,3,3-trifluoro-2-hydroxypropyl)-3,7-dihydro-1H-purine-2,6-dione]
500 to 1000 nM | 500 to 1000 nM | COc1cc(-c2nc3c(c(=O)[nH]c(=O)n3C[C@H](C)O)n2C)ccc1OCc1ccccc1 [Compound 61, (S)-8-(4-(benzyloxy)-3-methoxyphenyl)-3-(2-hydroxypropyl)-7-methyl-3,7-dihydro-1H-purine-2,6-dione]
100 to 500 nM | 100 to 500 nM | Cc1ccc(COc2ccc(-c3nc4c(c(=O)[nH]c(=O)n4CC(O)CF)n3C)cc2F)cc1 (stereo not drawn) [Compound 96, 3-(3-fluoro-2-hydroxypropyl)-8-(3-fluoro-4-((4-methylbenzyl)oxy)phenyl)-7-methyl-3,7-dihydro-1H-purine-2,6-dione]
500 to 1000 nM | 500 to 1000 nM | Cn1c(-c2ccc(OCc3ccccc3)c(OC(F)(F)F)c2)nc2c1c(=O)[nH]c(=O)n2CC(O)CO (stereo not drawn) [Compound 116, 8-(4-(benzyloxy)-3-(trifluoromethoxy)phenyl)-3-(2,3-dihydroxypropyl)-7-methyl-3,7-dihydro-1H-purine-2,6-dione]
100 to 500 nM | 100 to 500 nM | Cn1c(-c2ccc(Oc3ccc(OC(F)(F)F)c(Cl)c3)c(F)c2)nc2c1c(=O)[nH]c(=O)n2CC(O)C(F)(F)F (stereo not drawn) [Compound 166, 8-(4-(3-chloro-4-(trifluoromethoxy)phenoxy)-3-fluorophenyl)-7-methyl-3-(3,3,3-trifluoro-2-hydroxypropyl)-3,7-dihydro-1H-purine-2,6-dione]
< 100 nM | 100 to 500 nM | Cn1c(-c2ccc(OCc3ccccc3)c(OC(F)(F)F)c2)nc2c1c(=O)[nH]c(=O)n2CC(CO)C(F)F (stereo not drawn) [Compound 198, 8-(4-(benzyloxy)-3-(trifluoromethoxy)phenyl)-3-(3,3-difluoro-2-(hydroxymethyl)propyl)-7-methyl-3,7-dihydro-1H-purine-2,6-dione]
1000 to 5000 nM | 1000 to 5000 nM | Cc1ccc(COc2ccc(-c3nc4c(c(=O)[nH]c(=O)n4CC(O)CO)n3C)cc2F)cc1 (stereo not drawn) [Compound 95, 3-(2,3-dihydroxypropyl)-8-(3-fluoro-4-((4-methylbenzyl)oxy)phenyl)-7-methyl-3,7-dihydro-1H-purine-2,6-dione]
1000 to 5000 nM | 1000 to 5000 nM | CCC(O)Cn1c(=O)[nH]c(=O)c2c1nc(-c1ccc(OCc3ccccc3)c(OC)c1)n2C (stereo not drawn) [Compound 59, 8-(4-(benzyloxy)-3-methoxyphenyl)-3-(2-hydroxybutyl)-7-methyl-3,7-dihydro-1H-purine-2,6-dione]
500 to 1000 nM | 100 to 500 nM | COc1cc(-c2nc3c(c(=O)[nH]c(=O)n3CC(C)O)n2C)ccc1OCc1ccc(F)cc1 (stereo not drawn) [Compound 87, 8-(4-((4-fluorobenzyl)oxy)-3-methoxyphenyl)-3-(2-hydroxypropyl)-7-methyl-3,7-dihydro-1H-purine-2,6-dione]
500 to 1000 nM | 500 to 1000 nM | Cc1ccc(COc2ccc(-c3nc4c(c(=O)[nH]c(=O)n4CC(C)O)n3C)cc2F)cc1 (stereo not drawn) [Compound 115, 8-(3-fluoro-4-((4-methylbenzyl)oxy)phenyl)-3-(2-hydroxypropyl)-7-methyl-3,7-dihydro-1H-purine-2,6-dione]
100 to 500 nM | 100 to 500 nM | Cn1c(-c2ccc(Oc3ccc(OC(F)(F)F)cc3F)cc2)nc2c1c(=O)[nH]c(=O)n2CC(O)C(F)(F)F (stereo not drawn) [Compound 161, 8-(4-(2-fluoro-4-(trifluoromethoxy)phenoxy)phenyl)-7-methyl-3-(3,3,3-trifluoro-2-hydroxypropyl)-3,7-dihydro-1H-purine-2,6-dione]
100 to 500 nM | 100 to 500 nM | Cc1cc(-c2nc3c(c(=O)[nH]c(=O)n3CC(C)O)n2C)ccc1OCc1ccccc1 (stereo not drawn) [Compound 124, 8-(4-(benzyloxy)-3-methylphenyl)-3-(2-hydroxypropyl)-7-methyl-3,7-dihydro-1H-purine-2,6-dione]
1000 to 5000 nM | 1000 to 5000 nM | CC(O)Cn1c(=O)[nH]c(=O)c2c1nc(-c1ccc(Oc3ccc(F)c(C(F)(F)F)c3)cc1)n2C (stereo not drawn) [Compound 195, 8-(4-(4-fluoro-3-(trifluoromethyl)phenoxy)phenyl)-3-(2-hydroxypropyl)-7-methyl-3,7-dihydro-1H-purine-2,6-dione]
100 to 500 nM | 1000 to 5000 nM | CC(O)Cn1c(=O)[nH]c(=O)c2c1nc(-c1ccc(Oc3ccc(OC(F)(F)F)cc3)c(F)c1)n2C (stereo not drawn) [Compound 188, 8-(3-fluoro-4-(4-(trifluoromethoxy)phenoxy)phenyl)-3-(2-hydroxypropyl)-7-methyl-3,7-dihydro-1H-purine-2,6-dione]
